Measurements reported in article PMC9506485, “Synthesis and Structure–Activity Relationships for the Anti-Mycobacterial Activity of 3-Phenyl-N-(Pyridin-2-ylmethyl)Pyrazolo[1,5-a]Pyrimidin-7-Amines” (Pharmaceuticals, 2022).
≈ marks a conversion by molar mass, not a printed value.

How the values were obtained:
[1] = system: Mycobacterium tuberculosis (strain H37Rv); assay: MABA minimum inhibitory concentration assay (aerobic/replicating); assay type: cell-based; details: M.tb H37Rv; for MIC90: Mycobacterium tuberculosis, aerobic/replicating, 90% inhibition of growth
[2] = system: VERO green monkey kidney cells; assay: VERO mammalian cell toxicity assay; assay type: cell-based; details: Chlorocebus sabaeus; inhibition of growth of VERO green monkey kidney epithelial cells
[3] = Microsomal stability, human liver microsomes; assay type: in vitro ADME; details: pH 7.4; for microsomal CLint at 1 μM: human liver microsomes, read-out: HLM Clint(mic)
Description: (§1) Assays were performed by WuXi AppTec (Shanghai) Co., Ltd. The test compounds (Table 4) (at 1 μM) were incubated at 37 °C with liver microsomes from human or CD-1 mice in the presence of a NADPH regenerating system and phosphate buffer (100 mM, pH 7.4) at 0.5 mg/mL microsomal protein (the positive controls were testosterone, propafenone, and diclofenac). Samples were removed at time intervals of 0, 5, 10, 20, 30, and 60 min and immediately mixed with cold CH3CN (containing 0.1 μg/mL of tolbutamide as an internal standard) and then centrifuged prior to analysis by LCMS/MS.

[4] = Microsomal stability, mouse liver microsomes; assay type: in vitro ADME; details: for CLint scaled at 1 μM / half-life at 1 μM: CD-1, mouse, microsomes, pH 7.4; for microsomal CLint at 1 μM: CD-1, pH 7.4, mouse liver microsomes, read-out: MLM Clint(mic)
Description: as §1

hERG = hERG (Homo sapiens, UniProt Q12809); assay: hERG channel blockade, manual patch clamp; assay type: cell-based; details: cloned hERG potassium channels, room temperature; for inhibition at 0.3 µM: read-out: hERG % inhib. at 0.3 µM; for inhibition at 1 µM: read-out: hERG % inhib. at 1.0 µM
Sequence of hERG (Q12809 whole entry): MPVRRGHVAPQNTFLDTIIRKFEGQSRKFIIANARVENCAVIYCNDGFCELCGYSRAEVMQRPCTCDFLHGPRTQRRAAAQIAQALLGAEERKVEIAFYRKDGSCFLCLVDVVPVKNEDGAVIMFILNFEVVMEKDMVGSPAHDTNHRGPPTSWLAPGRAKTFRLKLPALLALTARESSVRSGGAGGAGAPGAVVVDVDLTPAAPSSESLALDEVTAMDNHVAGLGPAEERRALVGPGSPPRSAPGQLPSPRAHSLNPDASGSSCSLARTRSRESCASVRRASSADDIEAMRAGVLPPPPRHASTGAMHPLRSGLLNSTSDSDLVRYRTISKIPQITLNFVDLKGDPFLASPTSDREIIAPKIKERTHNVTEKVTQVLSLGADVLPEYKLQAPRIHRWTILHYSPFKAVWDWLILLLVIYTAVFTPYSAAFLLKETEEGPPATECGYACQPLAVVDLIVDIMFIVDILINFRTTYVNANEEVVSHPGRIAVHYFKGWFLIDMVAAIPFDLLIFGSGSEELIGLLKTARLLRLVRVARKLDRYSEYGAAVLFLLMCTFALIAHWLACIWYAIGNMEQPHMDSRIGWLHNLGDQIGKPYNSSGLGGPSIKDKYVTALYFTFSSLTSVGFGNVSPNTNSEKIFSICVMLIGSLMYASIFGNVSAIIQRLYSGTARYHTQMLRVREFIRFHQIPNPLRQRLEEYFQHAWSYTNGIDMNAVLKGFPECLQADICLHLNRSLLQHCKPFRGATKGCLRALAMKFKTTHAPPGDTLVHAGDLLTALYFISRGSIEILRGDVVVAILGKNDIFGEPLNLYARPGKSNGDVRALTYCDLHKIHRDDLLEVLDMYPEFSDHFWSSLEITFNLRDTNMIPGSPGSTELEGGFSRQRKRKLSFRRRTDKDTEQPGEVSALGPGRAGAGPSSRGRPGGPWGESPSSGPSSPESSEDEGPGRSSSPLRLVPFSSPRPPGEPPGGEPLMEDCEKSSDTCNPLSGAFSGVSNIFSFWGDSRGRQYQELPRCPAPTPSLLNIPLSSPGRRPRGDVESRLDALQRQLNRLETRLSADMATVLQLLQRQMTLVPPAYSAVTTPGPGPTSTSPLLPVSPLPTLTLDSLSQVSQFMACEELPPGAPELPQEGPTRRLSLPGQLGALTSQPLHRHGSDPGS
Description: Selected compounds were evaluated for hERG channel blockade (Table 4) by WuXi AppTec (Shanghai) Co., Ltd. This was carried out using cloned hERG potassium channels according to their standard manual patch clamp method. Two concentrations (0.3 and 1.0 µM) were tested (at room temperature), and at least three replicates were obtained for each. Amitryptyline was used as a standard.

[5] = system: Mycobacterium tuberculosis (strain H37Rv); assay: LORA minimum inhibitory concentration assay (low-oxygen/non-replicating); details: M.tb H37Rv, 90% inhibition of growth
[6] = human/mouse liver microsomes not distinguished, read-out: T½ values (microsomal stability)

| SMILES | MIC90 [1] [µg/mL] | IC50 [2] [µg/mL] | CLint scaled at 1 μM ([3]; human, microsomes) [mL/min/kg] | half-life at 1 μM ([3]; human, microsomes) [h] | microsomal CLint at 1 μM [3] [µL/min/mg] | CLint scaled at 1 μM [4] [mL/min/kg] | half-life at 1 μM [4] [h] | microsomal CLint at 1 μM [4] [µL/min/mg] | inhibition at 0.3 µM (hERG) [%] | inhibition at 1 µM (hERG) [%] | melting point [°C] | MIC90 LORA [5] [µg/mL] | half-life at 1 μM [3, 6] [h] | anti-mycobacterial activity in words ([1]; MABA/LORA) |
| --- | --- | --- | --- | --- | --- | --- | --- | --- | --- | --- | --- | --- | --- | --- |
| COc1ccnc(CNc2cc(-c3ccccc3)nc3c(-c4ccc(F)cc4)cnn23)c1 [Compound 63, 3-(4-Fluorophenyl)-N-((4-methoxypyridin-2-yl)methyl)-5-phenylpyrazolo[1,5-a]pyrimidin-7-amine] | 1.9 (≈ 4.47 µM) | > 32 | < 8.6 | > 2.42 | < 9.6 | < 38 | > 2.42 | < 9.6 | 2.3 | 4.6 | 205 to 208 | 0.5 (≈ 1.18 µM) | – | – |
| Fc1ccc(-c2cnn3c(NCc4ccc(Cl)cn4)cc(-c4ccccc4)nc23)cc1 [Compound 53, N-((5-Chloropyridin-2-yl)methyl)-3-(4-fluorophenyl)-5-phenylpyrazolo[1,5-a]pyrimidin-7-amine] | 4.9 (≈ 11.4 µM) | > 32 | < 8.6 | > 2.42 | < 9.6 | < 38 | > 2.42 | < 9.6 | 0.7 | 0 | 139 to 141 | 7.2 (≈ 16.7 µM) | – | – |
| Fc1ccc(-c2cnn3c(NCc4ccccn4)cc(-c4cccs4)nc23)cc1 [Compound 41, 3-(4-Fluorophenyl)-N-(pyridin-2-ylmethyl)-5-(thiophen-2-yl)pyrazolo[1,5-a]pyrimidin-7-amine] | 0.99 (≈ 2.47 µM) | > 32 | 75 | 0.283 | 83 | 163 | 0.567 | 41 | 0 | 0 | – | 0.36 (≈ 0.897 µM) | < 1.42 | – |
| COc1ccc(-c2cc(NCc3ccccn3)n3ncc(-c4ccc(F)cc4)c3n2)cc1 [Compound 34, 3-(4-Fluorophenyl)-5-(4-methoxyphenyl)-N-(pyridin-2-ylmethyl)pyrazolo[1,5-a]pyrimidin-7-amine] | 1.5 (≈ 3.53 µM) | > 32 | 16 | 1.28 | 18 | 88 | 1.05 | 22 | 0 | 1 | – | 0.25 (≈ 0.588 µM) | < 1.42 | – |
| Fc1ccc(-c2cnn3c(NCc4ccc(F)cn4)cc(-c4ccccc4)nc23)cc1 [Compound 52, 3-(4-Fluorophenyl)-N-((5-fluoropyridin-2-yl)methyl)-5-phenylpyrazolo[1,5-a]pyrimidin-7-amine] | 3.7 (≈ 8.95 µM) | > 32 | 11 | 1.81 | 13 | 50.3 | 1.82 | 12.7 | 0.8 | 11 | 118 to 120 | 3.4 (≈ 8.22 µM) | – | – |
| Fc1ccc(-c2cnn3c(NCc4ccccn4)cc(-c4ccccc4F)nc23)cc1 [Compound 28, 5-(2-Fluorophenyl)-3-(4-fluorophenyl)-N-(pyridin-2-ylmethyl)pyrazolo[1,5-a]pyrimidin-7-amine] | 1.79 (≈ 4.33 µM) | > 32 | 18 | 1.15 | 20 | 113 | 0.817 | 29 | 17 | 36 | – | 0.22 (≈ 0.532 µM) | < 1.42 | – |
| CC(C)c1ccc(-c2cc(NCc3ccccn3)n3ncc(-c4ccc(F)cc4)c3n2)cc1 [Compound 35, 3-(4-Fluorophenyl)-5-(4-isopropylphenyl)-N-(pyridin-2-ylmethyl)pyrazolo[1,5-a]pyrimidin-7-amine] | 1.8 (≈ 4.11 µM) | > 32 | < 8.6 | > 2.42 | < 9.6 | < 38 | > 2.42 | < 9.6 | 1 | 1 | – | 1.0 (≈ 2.29 µM) | – | – |
| Fc1ccc(-c2cnn3c(NCc4ccccn4)cc(C4CC4)nc23)cc1 [Compound 25, 5-Cyclopropyl-3-(4-fluorophenyl)-N-(pyridin-2-ylmethyl)pyrazolo[1,5-a]pyrimidin-7-amine] | 1.54 (≈ 4.28 µM) | 23.4 (≈ 65.1 µM) | 68 | 0.3 | 76 | 424 | 0.217 | 107 | 8 | 19 | – | 0.20 (≈ 0.556 µM) | < 1.42 | – |
| Fc1ccc(-c2cnn3c(NCc4ccccn4)cc(-c4ccccc4)nc23)cc1 [Compound 18, 3-(4-Fluorophenyl)-5-phenyl-N-(pyridin-2-ylmethyl)pyrazolo[1,5-a]pyrimidin-7-amine] | 3.8 (≈ 9.61 µM) | > 32 | 12 | 1.75 | 13 | 99 | 0.933 | 25 | 0.3 | 5 | 191 to 193 | 0.40 (≈ 1.01 µM) | < 1.42 | active |
| Fc1ccc(-c2cnn3c(NCc4ccccn4)cc(-c4ccoc4)nc23)cc1 [Compound 44, 3-(4-Fluorophenyl)-5-(furan-3-yl)-N-(pyridin-2-ylmethyl)pyrazolo[1,5-a]pyrimidin-7-amine] | 0.96 (≈ 2.49 µM) | > 32 | 66 | 0.317 | 74 | 570 | 0.167 | 144 | 4 | 14 | – | 0.16 (≈ 0.415 µM) | < 1.42 | – |
| Cc1cccc(-c2cc(NCc3ccccn3)n3ncc(-c4ccc(F)cc4)c3n2)c1 [Compound 30, 3-(4-Fluorophenyl)-N-(pyridin-2-ylmethyl)-5-(m-tolyl)pyrazolo[1,5-a]pyrimidin-7-amine] | 1.6 (≈ 3.91 µM) | > 32 | < 8.6 | > 2.42 | < 9.6 | < 38 | > 2.42 | < 9.6 | 3 | 11 | – | 0.9 (≈ 2.2 µM) | – | – |
| Fc1ccc(-c2cnn3c(NCc4ccccn4)cc(-c4ccc(OC(F)(F)F)cc4)nc23)cc1 [Compound 38, 3-(4-Fluorophenyl)-N-(pyridin-2-ylmethyl)-5-(4-(trifluoromethoxy)phenyl)pyrazolo[1,5-a]pyrimidin-7-amine] | 1.9 (≈ 3.96 µM) | > 32 | 15 | 1.43 | 16 | < 38 | > 2.42 | < 9.6 | 2 | 2 | – | 1.1 (≈ 2.29 µM) | < 1.42 | – |
| Fc1ccc(-c2cnn3c(NCc4ccccn4)cc(-c4ccsc4)nc23)cc1 [Compound 42, 3-(4-Fluorophenyl)-N-(pyridin-2-ylmethyl)-5-(thiophen-3-yl)pyrazolo[1,5-a]pyrimidin-7-amine] | 1.4 (≈ 3.49 µM) | > 32 | 43 | 0.483 | 47 | 298 | 0.3 | 75 | 9 | 24 | – | 0.22 (≈ 0.548 µM) | < 1.42 | – |
| Fc1ccc(-c2cnn3c(NCc4ccccn4)cc(-c4cccnc4)nc23)cc1 [Compound 39, 3-(4-Fluorophenyl)-N-(pyridin-2-ylmethyl)-5-(pyridin-3-yl)pyrazolo[1,5-a]pyrimidin-7-amine] | 2.3 (≈ 5.8 µM) | > 32 | 57 | 0.367 | 63 | 445 | 0.2 | 112 | 16 | 46 | – | 0.30 (≈ 0.757 µM) | < 1.42 | – |
